# Measurements: ChEMBL document CHEMBL6103622 (J Med Chem, 2025)
# Active and inactive are the calls of the source. The rule behind the calls is not given here.
# Legend:
# [1] = target: Macrophage colony-stimulating factor 1 receptor (Homo sapiens, UniProt P07333); test: Inhibition of CSF-1R (unknown origin)
# [2] = target: T1, Macrophage colony-stimulating factor 1 receptor (Mus musculus) (UniProt P09581); test: Inhibition of CSF-1R signaling pathway activation in female C57BL/6 mouse BMDM cells assessed as reduction in CSF-1R phosphorylation at 100 nM preincubated with compounds for 4 hrs followed by M-CSF stimulation and measured after 30 mins by Western blot analysis; type: cell-based; conditions: time 4.5 hrs
# T1 sequence (whole entry): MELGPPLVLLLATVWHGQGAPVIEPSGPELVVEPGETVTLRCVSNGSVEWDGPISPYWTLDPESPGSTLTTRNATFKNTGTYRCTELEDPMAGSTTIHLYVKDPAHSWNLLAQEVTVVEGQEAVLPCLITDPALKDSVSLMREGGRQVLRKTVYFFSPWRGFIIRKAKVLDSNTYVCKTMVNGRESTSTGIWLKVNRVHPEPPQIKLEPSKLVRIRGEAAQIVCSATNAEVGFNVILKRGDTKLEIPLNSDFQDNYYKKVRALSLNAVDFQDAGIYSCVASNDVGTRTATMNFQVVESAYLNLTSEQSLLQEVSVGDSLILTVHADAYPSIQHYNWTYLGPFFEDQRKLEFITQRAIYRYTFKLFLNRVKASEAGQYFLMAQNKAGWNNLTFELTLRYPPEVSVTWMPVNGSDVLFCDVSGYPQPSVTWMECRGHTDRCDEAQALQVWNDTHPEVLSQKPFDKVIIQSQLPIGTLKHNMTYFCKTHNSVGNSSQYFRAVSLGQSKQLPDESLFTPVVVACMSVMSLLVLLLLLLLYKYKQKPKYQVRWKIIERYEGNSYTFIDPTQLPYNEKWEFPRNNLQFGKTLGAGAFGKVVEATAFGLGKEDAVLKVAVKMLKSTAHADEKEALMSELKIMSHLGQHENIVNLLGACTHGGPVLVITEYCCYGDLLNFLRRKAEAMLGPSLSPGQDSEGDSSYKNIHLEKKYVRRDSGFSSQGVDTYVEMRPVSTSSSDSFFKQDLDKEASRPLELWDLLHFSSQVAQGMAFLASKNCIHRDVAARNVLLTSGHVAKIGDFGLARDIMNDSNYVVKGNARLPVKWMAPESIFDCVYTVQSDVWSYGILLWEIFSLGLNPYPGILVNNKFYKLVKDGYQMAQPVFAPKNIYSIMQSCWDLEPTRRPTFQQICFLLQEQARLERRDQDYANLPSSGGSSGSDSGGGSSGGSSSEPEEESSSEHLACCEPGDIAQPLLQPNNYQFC
# [3] = target: T1, Macrophage colony-stimulating factor 1 receptor (Mus musculus); test: Inhibition of CSF-1R signaling pathway activation in female C57BL/6 mouse BMDM cells assessed as reduction in AKT phosphorylation at Ser473 residue at 100 nM preincubated with compounds for 4 hrs followed by M-CSF stimulation and measured after 30 mins by Western blot analysis; type: cell-based; conditions: time 4.5 hrs
# [4] = target: T1, Macrophage colony-stimulating factor 1 receptor (Mus musculus); test: Inhibition of CSF-1R signaling pathway activation in female C57BL/6 mouse BMDM cells assessed as reduction in CSF-1R phosphorylation at Tyr723 residue at 100 nM preincubated with compounds for 4 hrs followed by M-CSF stimulation and measured after 30 mins by Western blot analysis; type: cell-based; conditions: time 4.5 hrs
# MC-38 [5] = test: Induction of apoptosis in mouse MC38 cells cocultured with condition medium of M2 macrophages assessed as late apoptotic cells at 100 nM by Annexin V/PI staining based flow cytometric analysis (reference value: 1.66 %); type: functional
# MC-38 [6] = test: Induction of apoptosis in mouse MC38 cells assessed as early apoptotic cells at 100 nM by Annexin V/PI staining based flow cytometric analysis (reference value: 1.91 %); type: functional
# MC-38 [7] = test: Induction of apoptosis in mouse MC38 cells cocultured with condition medium of M2 macrophages assessed as early apoptotic cells at 100 nM by Annexin V/PI staining based flow cytometric analysis (reference value: 3.16 %); type: functional
# MC-38 [8] = test: Induction of apoptosis in mouse MC38 cells assessed as late apoptotic cells at 100 nM by Annexin V/PI staining based flow cytometric analysis (reference value: 0.85 %); type: functional
# Sequence of Macrophage colony-stimulating factor 1 receptor (P07333 whole entry): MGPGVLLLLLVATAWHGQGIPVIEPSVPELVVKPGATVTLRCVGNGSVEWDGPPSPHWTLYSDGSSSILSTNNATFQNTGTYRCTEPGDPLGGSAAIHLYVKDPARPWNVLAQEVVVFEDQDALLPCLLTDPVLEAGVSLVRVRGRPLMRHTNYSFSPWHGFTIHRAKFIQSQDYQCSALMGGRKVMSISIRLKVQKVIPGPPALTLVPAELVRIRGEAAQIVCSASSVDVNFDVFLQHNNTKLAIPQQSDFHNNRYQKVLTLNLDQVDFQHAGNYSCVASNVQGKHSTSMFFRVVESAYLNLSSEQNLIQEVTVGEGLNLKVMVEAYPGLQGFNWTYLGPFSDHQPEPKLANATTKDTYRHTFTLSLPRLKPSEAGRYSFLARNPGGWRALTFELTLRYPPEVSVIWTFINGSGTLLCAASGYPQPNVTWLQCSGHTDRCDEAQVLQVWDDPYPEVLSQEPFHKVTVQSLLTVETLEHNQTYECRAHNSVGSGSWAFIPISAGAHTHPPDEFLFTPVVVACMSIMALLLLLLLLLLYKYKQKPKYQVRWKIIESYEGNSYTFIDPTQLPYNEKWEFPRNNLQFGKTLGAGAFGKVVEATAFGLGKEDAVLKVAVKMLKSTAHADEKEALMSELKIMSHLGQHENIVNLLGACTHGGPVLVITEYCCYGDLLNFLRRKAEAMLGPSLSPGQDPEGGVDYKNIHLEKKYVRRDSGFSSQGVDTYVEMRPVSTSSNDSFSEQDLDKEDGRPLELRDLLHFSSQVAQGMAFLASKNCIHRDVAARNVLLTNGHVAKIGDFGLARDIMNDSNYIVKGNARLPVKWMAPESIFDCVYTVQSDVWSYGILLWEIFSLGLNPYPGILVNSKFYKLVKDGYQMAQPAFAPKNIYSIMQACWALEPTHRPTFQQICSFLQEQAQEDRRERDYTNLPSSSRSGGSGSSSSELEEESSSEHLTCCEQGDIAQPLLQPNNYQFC
SMILES,IC50 [1],further results
Cc1nc(NC(=O)Nc2ccc(F)cc2)ccc1Oc1c[nH]c2ncc(Cl)cc12,85.6 nM,
Cc1nc(NC(=O)Nc2ccc(N3CCN(C)CC3)cc2)ccc1Oc1c[nH]c2ncc(Cl)cc12,593 nM,
O[C@@H]1CCCC[C@H]1Nc1nc2ccc(Oc3c[nH]c4ncc(Cl)cc34)cc2s1,25.8 nM,inhibition [2]: Active; Weak Inhibitory Effect Observed
Cc1nc(NC(=O)NCc2ccc(C(F)(F)F)nc2)ccc1Oc1c[nH]c2ncc(Cl)cc12,406 nM,
FC(F)(F)c1ccc(Nc2nc3ccc(Oc4c[nH]c5ncc(Cl)cc45)cc3s2)cc1,56.5 nM,
Cc1nc(NC(=O)Nc2cccc(C(F)(F)F)c2)ccc1Oc1c[nH]c2ncc(Cl)cc12,372 nM,
O=C(Nc1ccc(Oc2c[nH]c3ncc(Cl)cc23)cc1)N[C@@H]1CCCC[C@H]1O,43.5 nM,
Cc1nc(NC(=O)Nc2cccc(Cl)c2)ccc1Oc1c[nH]c2ncc(Cl)cc12,34.6 nM,inhibition [3]: Active; Minimal Effect Observed; inhibition [4]: Active; Minimal Effect Observed
COc1cc(NC(=O)Nc2ccc(Oc3c[nH]c4ncc(Cl)cc34)c(C)n2)cc(OC)c1OC,23.8 nM,inhibition [3]: Active; Minimal Effect Observed; inhibition [4]: Active; Minimal Effect Observed
Cc1nc(NC(=O)Nc2ccc(C(F)(F)F)nc2)ccc1Oc1c[nH]c2ncc(Cl)cc12,152 nM,
Cc1nc(NC(=O)Nc2cc(C(C)(C)C)no2)ccc1Oc1c[nH]c2ncc(Cl)cc12,> 1000 nM,
COc1cc(NC(=O)Nc2ccc(Oc3c[nH]c4ncc(Cl)cc34)c(C)n2)ccc1C(F)(F)F,131 nM,
FC(F)(F)c1ccc(CNc2ccc(Cc3c[nH]c4ncc(Cl)cc34)cn2)cn1 [PEXIDARTINIB],,Activity (MC-38 [5]): 2.25%; Activity (MC-38 [6]): 1.8%; Activity (MC-38 [7]): 8.49%; Activity (MC-38 [8]): 0.83%

# Further lines, with some results ahead:
IC50 [1],SMILES,further results
> 1000 nM,Cc1nc(NC(=O)Nc2ccc(C(C)(C)C)c(Cl)c2)ccc1Oc1c[nH]c2ncc(Cl)cc12,
30.6 nM,O[C@@H]1CCCC[C@H]1Nc1nc2ccc(Oc3c[nH]c4ncc(F)cc34)cc2s1,inhibition [2]: Active; Weak Inhibitory Effect Observed
49.4 nM,O[C@@H]1CCCC[C@H]1Nc1nc2ccc(Cc3c[nH]c4ncc(Cl)cc34)cc2s1,inhibition [2]: Active; Weak Inhibitory Effect Observed
> 1000 nM,OC[C@H](Nc1nc2ccc(Oc3c[nH]c4ncc(Cl)cc34)cc2s1)C1CCCCC1,
41.4 nM,O[C@@H]1CCCC[C@H]1Nc1nc2ccc(Oc3c[nH]c4nccc(F)c34)cc2s1,
48.9 nM,Cc1nc(NC(=O)Nc2ccc(C(F)(F)F)cc2)ccc1Oc1c[nH]c2ncc(Cl)cc12,
